Laboratory results taken from PMC5131319, “Occurrence, temporal trends, and half-lives of perfluoroalkyl acids (PFAAs) in occupational workers in China” (Scientific Reports, 2016).
Where two headings read alike, the source gives them in different places.

Columns and labels:
[1] = PFAA concentration in serum of occupational workers (HPLC-ESI/MS/MS); type: in vivo, human; parameters: Serum PFAA level: unit: ng/mL; conditions: for Serum concentration, geometric mean: all occupational workers
Description: The selected fluorochemical plant (Henxin Chemical Plant) in this study is one of the largest producers of PFOS-related chemicals in China and is located in Yingcheng, Hubei province. Perfluoroalkyl sulfonic acids (PFSAs) and perfluorotertiary amines are synthesized through an electro-chemical fluorination (ECF) process. We collected paired serum and urine samples from the occupational workers in the plant for five consecutive years, and the sampling activities were carried out in Nov. 2008, Nov. 2009, Nov. 2010, Dec. 2011, and Dec 2012, respectively. The Medical Research Ethics Committee, School of Medicine, Jianghan University, approved the ethics of this study, and all methods were performed in accordance with the relevant guidelines and regulations, moreover, all volunteers gave written informed consent. Demographic information of the donors, including gender, age, length of service, and work assignment, was collected with a questionnaire (Table S1). The sampled population included a total of 302 occupational workers, of which there were 89 female and 213 male participants. In total, 302 serum and 274 urine samples were collected.
The participants were told not to eat breakfast before the sampling, and morning urine samples and blood samples were collected. Serum was separated from the blood by centrifugation at 1100 × g at 4 °C for 10 min and then placed on ice. Serum samples were then transferred to our laboratory on the same day and stored in polypropylene containers at −20 °C until analysis.
All pre-treatment methods and instrument analysis of PFAAs in serum and urine samples are based on previous studies with minor modifications (see Supplementary Information)[3][31]. Based on the PFAA profiles in environmental matrices around the same plant in our previous study, only 3 main PFAAs, PFHxS, PFOA, and PFOS, were analyzed in the obtained serum and urine samples. Instrumental analysis of the PFAAs was performed by a HPLC-ESI/MS/MS system (HPLC: Waters 2695, MS: Waters Quattro Premier XE). The limits of detection (LODs) of PFHxS, PFOA, and PFOS were 0.020, 0.063, and 0.018 ng mL^−1 for serum samples and 0.008, 0.025, and 0.007 ng mL^−1 for urine samples, respectively. A procedural blank was performed for every batch of seven samples, and all of the blank levels were below the LODs. […] Details of quality assurance and quality control of the chemical analysis can be found in the Supplementary Information.

[2] = Half-life estimated by daily clearance rates (first-order model, k = Cltotal/Vd); type: in vivo, human; conditions: for half-life: human, serum and urine, other: occupational exposure
Text: Olsen et al.[21] found linear relationship between the logarithm of serum PFAAs concentration and time, and a first order model was adopted to estimate the half-lives of PFAAs. The elimination of PFAAs in humans was also described with the following equation: […]
If we set C(t) as 1/2C0, then the half-life
where k is the elimination rate constant. We calculated k using two approaches in the present study. In the first approach, k is defined as Cltotal/Vd, where Vd stands for the volume of distribution of PFAAs in the human body. Cltotal represents the total daily PFAAs clearance in the human body; for men and women older than 50, it refers to renal clearance, while for young women, it is defined as the sum of menstrual clearance and renal clearance. To keep consistency with other studies, Vd of PFOS and PFHxS were set at 230 mL kg^−1, and Vd of PFOA was set at 170 mL kg^−1 in this study. In the second approach, k is defined as the average annual decline rates of PFAAs in workers who participated in this study.
We used a first order model to estimate the half-lives of PFAAs in workers (Eq (2)). k was defined as […], where Cltotal referred to renal clearance for men and women older than 50 and to the sum of menstrual clearance and renal clearance for young women. According to Eq (2), the half-lives of PFHxS, PFOA, and PFOS for the occupational workers tested ranged from 0.51–3799 years, 0.44–3663 years, and 0.76–30475 years, with GM and median values of 14.7 and 11.7, 4.1 and 4.0, 32.6 and 21.6 years, respectively (Table 2). […] The GM values of the half-lives of PFHxS, PFOA, and PFOS for men here were 19.9, 4.7, and 60.9 years, respectively, while those for women were 7.5, 3.1, and 8.0 years, respectively. The half-lives estimated by the limited clearance route information could be considered as the upper limits for PFAAs. It seemed likely that the unrealistically long half-life estimates derived from the urinary data were actually evidence of the contribution of fecal elimination to the clearance of these chemicals. The extremely long half-lives of PFAAs, such as 3799 years for PFHxS, 3663 years for PFOA, and 30475 years for PFOS, were caused by the application of LOD/2 instead of ND in workers’ urine samples. The geometric mean or median value of the PFAAs half-lives can better reflect the actual situation.

[3] = Electrolytic Department, length of service < 1 year
[4] = Fabric finishing agent department, N 8
[5] = Management Office, length of service 1-3 years
[6] = Management Office, length of service < 1 year
[7] = Management Office, length of service >3 years
[8] = Research Building, length of service 1-3 years
[9] = Research Building, length of service >3 years
[10] = Sulfonation Department, length of service 1-3 years
[11] = Sulfonation Department, length of service < 1 year
[12] = Sulfonation Department, length of service >3 years
[13] = human, serum, other: occupational exposure, 46 workers sampled at least three times, read-out: Serum concentration, GM
[14] = workers with service length 1–3 years
[15] = workers with service length less than 1 year
[16] = workers with service length more than 3 years
[17] = Female workers, number 71, menstrual clearance added to renal clearance
[18] = Male workers, number 136, renal clearance
[19] = both sexes, Total workers, number 207, read-out: Half-life estimated through daily elimination, GM (converted)
[20] = both sexes, Total workers, number 207, read-out: Half-life estimated through daily elimination, Median (converted)
[21] = female, Female workers, number 71, menstrual clearance added to renal clearance, read-out: Half-life estimated through daily elimination, GM (converted)
[22] = male, Male workers, number 136, renal clearance, read-out: Half-life estimated through daily elimination, Median (converted)

O=S(=O)(O)C(F)(F)C(F)(F)C(F)(F)C(F)(F)C(F)(F)C(F)(F)F [PFHxS, perfluorohexane sulfonate]
Serum concentration, mean ([1]; All workers, N 302): 1855 ng/mL | Serum concentration, median ([1]; All workers, N 302): 764 ng/mL | Serum PFAA level ([1]; Electrolytic Department, length of service 1-3 years): 960 | Serum PFAA level [1, 3]: 197 | Serum PFAA level ([1]; Electrolytic Department, length of service >3 years): 1116 | Serum concentration, mean ([1]; Electrolytic department, N 74): 1469 ng/mL | Serum concentration, median ([1]; Electrolytic department, N 74): 1011 ng/mL | Serum concentration, range ([1]; Electrolytic department, N 74): 46.6 to 6759 ng/mL | Serum concentration, mean [1, 4]: 1956 ng/mL | Serum concentration, median [1, 4]: 1768 ng/mL | Serum concentration, range [1, 4]: 550 to 4690 ng/mL | Serum PFAA level [1, 5]: 65.1 | Serum PFAA level [1, 6]: 8.5 | Serum PFAA level [1, 7]: 186 | Serum concentration, mean ([1]; Management office, N 92): 331 ng/mL | Serum concentration, median ([1]; Management office, N 92): 169 ng/mL | Serum PFAA level [1, 8]: 946 | Serum PFAA level ([1]; Research Building, length of service < 1 year): 26 | Serum PFAA level [1, 9]: 607 | Serum concentration, mean ([1]; Research building, N 27): 842 ng/mL | Serum concentration, median ([1]; Research building, N 27): 506 ng/mL | Serum concentration, range ([1]; Research building, N 27): 3.0 to 3360 ng/mL | Serum PFAA level [1, 10]: 1477 | Serum PFAA level [1, 11]: 1129 | Serum PFAA level [1, 12]: 3087 | Serum concentration, mean ([1]; Sulfonation department, N 101): 3778 ng/mL | Serum concentration, median ([1]; Sulfonation department, N 101): 2250 ng/mL | Serum concentration, geometric mean [1]: 628 ng/mL | Average serum concentration (Average ± SD) ([1]; female workers, n 89): 1,044 ± 1718 ng mL^−1 | concentration at 2009 calendar year ([1]; human, serum, 2009, 37 workers, read-out: Serum concentration in workers (decline estimate)): 455 ng/mL | concentration at 2010 calendar year ([1]; human, serum, 2010, 37 workers, read-out: Serum concentration in workers (decline estimate)): 366 ng/mL | concentration at 2008 calendar year [1, 13]: 328 ng/mL | concentration at 2012 calendar year [1, 13]: 1670 ng/mL | Average serum concentration (Average ± SD) ([1]; male workers, n 213): 2,191 ± 3,050 ng mL^−1 | Serum concentration, GM [1, 14]: 521 ng/mL | Serum concentration, GM [1, 15]: 212 ng/mL | Serum concentration, GM [1, 16]: 830 ng/mL | Half-life estimated through daily elimination, Max [2, 17]: 15.1 years | Half-life estimated through daily elimination, Min [2, 17]: 2.8 years | Half-life estimated through daily elimination, Min [2, 18]: 0.51 years | Half-life estimated through daily elimination, Min ([2]; Total workers, number 207): 0.51 years | half-life [2, 19]: 5370 days | half-life [2, 20]: 4270 days | half-life [2, 21]: 2740 days | half-life ([2]; female, Female workers, number 71, menstrual clearance added to renal clearance, read-out: Half-life estimated through daily elimination, Median (converted)): 2780 days | half-life [2, 22]: 5300 days

O=C(O)C(F)(F)C(F)(F)C(F)(F)C(F)(F)C(F)(F)C(F)(F)C(F)(F)F [PFOA, perfluorooctanoic acid]
Serum concentration, mean ([1]; All workers, N 302): 1052 ng/mL | Serum concentration, median ([1]; All workers, N 302): 427 ng/mL | Serum concentration, range ([1]; All workers, N 302): 2.5 to 32000 ng/mL | Serum PFAA level [1, 3]: 118 | Serum concentration, mean ([1]; Electrolytic department, N 74): 2337 ng/mL | Serum concentration, median ([1]; Electrolytic department, N 74): 1126 ng/mL | Serum concentration, range ([1]; Electrolytic department, N 74): 55.9 to 32000 ng/mL | Serum concentration, mean [1, 4]: 606 ng/mL | Serum concentration, median [1, 4]: 114 ng/mL | Serum concentration, range [1, 4]: 51 to 2600 ng/mL | Serum PFAA level [1, 5]: 48.3 | Serum PFAA level [1, 6]: 9.9 | Serum PFAA level [1, 7]: 167 | Serum concentration, mean ([1]; Management office, N 92): 362 ng/mL | Serum concentration, median ([1]; Management office, N 92): 101 ng/mL | Serum concentration, range ([1]; Management office, N 92): 2.5 to 4380 ng/mL | Serum PFAA level [1, 8]: 124 | Serum PFAA level [1, 9]: 276 | Serum concentration, mean ([1]; Research building, N 27): 404 ng/mL | Serum concentration, median ([1]; Research building, N 27): 142 ng/mL | Serum concentration, range ([1]; Research building, N 27): 4.7 to 2920 ng/mL | Serum PFAA level [1, 10]: 371 | Serum PFAA level [1, 11]: 185 | Serum PFAA level [1, 12]: 896 | Serum concentration, mean ([1]; Sulfonation department, N 101): 929 ng/mL | Serum concentration, median ([1]; Sulfonation department, N 101): 603 ng/mL | Serum concentration, range ([1]; Sulfonation department, N 101): 4.9 to 4630 ng/mL | Serum concentration, geometric mean [1]: 334 ng/mL | Average serum concentration (Average ± SD) ([1]; female workers, n 89): 659 ± 743 ng/mL | concentration at 2008 calendar year [1, 13]: 368 ng/mL | concentration at 2009 calendar year ([1]; human, serum, other: occupational exposure, 46 workers sampled at least three times, 2009, read-out: Serum concentration, GM): 252 ng/mL | concentration at 2010 calendar year ([1]; human, serum, other: occupational exposure, 46 workers sampled at least three times, 2010, read-out: Serum concentration, GM): 622 ng/mL | concentration at 2011 calendar year ([1]; human, serum, other: occupational exposure, 46 workers sampled at least three times, 2011, read-out: Serum concentration, GM): 692 ng/mL | concentration at 2012 calendar year [1, 13]: 416 ng/mL | Average serum concentration (Average ± SD) ([1]; male workers, n 213): 1,215 ± 2,936 ng mL^−1 | Serum concentration, GM [1, 14]: 222 ng/mL | Serum concentration, GM [1, 15]: 68 ng/mL | Serum concentration, GM [1, 16]: 527 ng/mL | Half-life estimated through daily elimination, Max [2, 17]: 11.1 years | Half-life estimated through daily elimination, Median [2, 17]: 2.8 years | Half-life estimated through daily elimination, Min [2, 17]: 0.44 years | Half-life estimated through daily elimination, Min [2, 18]: 0.48 years | Half-life estimated through daily elimination, Min ([2]; Total workers, number 207): 0.44 years | half-life [2, 19]: 1500 days | half-life [2, 20]: 1460 days | half-life [2, 21]: 1130 days | half-life ([2]; male, Male workers, number 136, renal clearance, read-out: Half-life estimated through daily elimination, GM (converted)): 1720 days | half-life [2, 22]: 1610 days
